# According to PubChem BioAssay AID264 (DTP/NCI, 2004):
# Values joined by “and” are separate entries in the source; they are usually repeats but may differ in a detail not shown here. Equal values may be shown once. Results filed as inconclusive are left out.
# Tested on: nude mice, LX-1 lung xenograft intrarenal, tumor weight T/C
# Assay: NCI In Vivo Anticancer Drug Screen. Data for tumor model Human Lung LX-1 Xenograft (intrarenal inoculation) in NU/NU Swiss (nude) mice
# Details: endpoint: mean tumor weight change, higher = larger tumour
# Outline: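 Antitumor effect is expressed as a ratio: the mean tumor measurement of the drug-treated group relative to that of the vehicle-dosed control group.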
# [1] = dose: 800.0 mg/kg/injection, schedule: Q04DX003 (sc), vehicle: Klucel (hydroxypropylcellulose) (HPC)
# [2] = dose: 75.0 mg/kg/injection, schedule: Q04DX003 (sc), vehicle: saline with Tween-80
# [3] = dose: 150.0 mg/kg/injection, schedule: Q04DX003 (sc), vehicle: saline with Tween-80
# [4] = dose: 300.0 mg/kg/injection, schedule: Q04DX003 (sc), vehicle: saline with Tween-80
# [5] = dose: 1200.0 mg/kg/injection, schedule: Q04DX003 (sc), vehicle: saline with Tween-80
# [6] = dose: 800.0 mg/kg/injection, schedule: Q04DX003 (sc), vehicle: saline with Tween-80
smiles,measurement,setting,value
CC1(C)N=C(N)N=C(N)N1c1ccc(F)c(C(F)(F)F)c1,T/C,"dose: 3.13 mg/kg/injection, schedule: Q01DX010 (sc), vehicle: saline",76 % of control
same,T/C,"dose: 12.5 mg/kg/injection, schedule: Q01DX010 (sc), vehicle: saline",118 % of control and 122 % of control
same,T/C,"dose: 25.0 mg/kg/injection, schedule: Q01DX010 (sc), vehicle: saline",33 % of control
C[Si](C)(C)O/C=C1/CCOC1=O,T/C,"dose: 50.0 mg/kg/injection, schedule: Q04DX003 (sc), vehicle: suspension in saline",115 % of control
same,T/C,"dose: 100.0 mg/kg/injection, schedule: Q04DX003 (sc), vehicle: suspension in saline",122 % of control
same,T/C,"dose: 200.0 mg/kg/injection, schedule: Q04DX003 (sc), vehicle: suspension in saline",107 % of control
same,T/C,"dose: 400.0 mg/kg/injection, schedule: Q04DX003 (sc), vehicle: suspension in saline",106 % of control
CC(=O)OCC1OC([S-])C(OC(C)=O)C(OC(C)=O)C1OC(C)=O.CC[PH+](CC)CC.CC[PH+](CC)CC.[Au].[Au] (configuration not stated),T/C,"dose: 3.12 mg/kg/injection, schedule: Q04DX003 (sc), vehicle: Klucel (hydroxypropylcellulose) (HPC)",110 % of control
same,T/C,"dose: 6.25 mg/kg/injection, schedule: Q04DX003 (sc), vehicle: Klucel (hydroxypropylcellulose) (HPC)",88 % of control
same,T/C,"dose: 12.5 mg/kg/injection, schedule: Q04DX003 (sc), vehicle: Klucel (hydroxypropylcellulose) (HPC)",75 % of control
C[C@@H]1C[C@H]2[C@@H]3CCC4=CC(=O)C=C[C@]4(C)[C@@]3(F)[C@@H](O)C[C@]2(C)[C@@]1(O)C(=O)CO,T/C,"dose: 1.56 mg/kg/injection, schedule: Q01DX010 (sc), vehicle: Klucel (hydroxypropylcellulose) (HPC)",41 % of control
same,T/C,"dose: 3.13 mg/kg/injection, schedule: Q01DX010 (sc), vehicle: Klucel (hydroxypropylcellulose) (HPC)",32 % of control
same,T/C,"dose: 6.25 mg/kg/injection, schedule: Q01DX010 (sc), vehicle: Klucel (hydroxypropylcellulose) (HPC)",33 % of control
same,T/C,"dose: 12.5 mg/kg/injection, schedule: Q01DX010 (sc), vehicle: Klucel (hydroxypropylcellulose) (HPC)",26 % of control
Nc1ncnc2c1ccn2C1OC(CO)C(O)C1O (configuration not stated),T/C,"dose: 1.0 mg/kg/injection, schedule: Q01DX010 (sc), vehicle: Klucel (hydroxypropylcellulose) (HPC)",85 % of control
same,T/C,"dose: 2.0 mg/kg/injection, schedule: Q01DX010 (sc), vehicle: Klucel (hydroxypropylcellulose) (HPC)",101 % of control
same,T/C,"dose: 4.0 mg/kg/injection, schedule: Q01DX010 (sc), vehicle: Klucel (hydroxypropylcellulose) (HPC)",53 % of control
O.O.[NH-]C1CCCCC1[NH-].[Pt+2] (configuration not stated),T/C,"dose: 5.0 mg/kg/injection, schedule: Q01DX010 (sc), vehicle: dextrose",68 % of control
same,T/C,"dose: 10.0 mg/kg/injection, schedule: Q01DX010 (sc), vehicle: dextrose",74 % of control
same,T/C,"dose: 20.0 mg/kg/injection, schedule: Q01DX010 (sc), vehicle: dextrose",57 % of control
NC(Cc1ccc(N(CCCl)CCCl)cc1)C(=O)O (configuration not stated),T/C,"dose: 2.5 mg/kg/injection, schedule: Q04DX003 (sc), vehicle: Klucel (hydroxypropylcellulose) (HPC)",75 % of control
same,T/C,"dose: 5.0 mg/kg/injection, schedule: Q04DX003 (sc), vehicle: Klucel (hydroxypropylcellulose) (HPC)",105 % of control
same,T/C,"dose: 40.0 mg/kg/injection, schedule: Q04DX003 (sc), vehicle: Klucel (hydroxypropylcellulose) (HPC)",22 % of control
COC(=O)C[C@](O)(CCC(C)(C)O)C(=O)O[C@@H]1C(OC)=C[C@]23CCCN2CCc2cc4c(cc2[C@H]13)OCO4,T/C,"dose: 0.63 mg/kg/injection, schedule: Q04DX003 (sc), vehicle: saline",115 % of control
same,T/C,"dose: 1.25 mg/kg/injection, schedule: Q04DX003 (sc), vehicle: saline",110 % of control
same,T/C,"dose: 2.5 mg/kg/injection, schedule: Q04DX003 (sc), vehicle: saline",95 % of control
same,T/C,"dose: 5.0 mg/kg/injection, schedule: Q04DX003 (sc), vehicle: saline",102 % of control
CSc1nc(=O)[nH]nc1SCc1ccccc1,T/C,"dose: 100.0 mg/kg/injection, schedule: Q04DX003 (sc), vehicle: Klucel (hydroxypropylcellulose) (HPC)",101 % of control
same,T/C,"dose: 200.0 mg/kg/injection, schedule: Q04DX003 (sc), vehicle: Klucel (hydroxypropylcellulose) (HPC)",93 % of control
same,T/C,"dose: 400.0 mg/kg/injection, schedule: Q04DX003 (sc), vehicle: Klucel (hydroxypropylcellulose) (HPC)",64 % of control
same,T/C,[1],68 % of control
Cc1cc(=O)n2c3c(c4c(cc13)c(CN(C)C)cc(=O)n4C)OC2,T/C,[2],59 % of control
same,T/C,[3],89 % of control
same,T/C,[4],55 % of control
C[n+]1ccc(Nc2ccc(NC(=O)c3ccc(Nc4cc[n+](C)c5ccc(N)cc45)cc3)cc2)cc1,T/C,"dose: 12.5 mg/kg/injection, schedule: Q04DX003 (sc), vehicle: distilled water + Tween-80",80 % of control
same,T/C,"dose: 25.0 mg/kg/injection, schedule: Q04DX003 (sc), vehicle: distilled water + Tween-80",86 % of control
same,T/C,"dose: 50.0 mg/kg/injection, schedule: Q04DX003 (sc), vehicle: distilled water + Tween-80",25 % of control
same,T/C,"dose: 100.0 mg/kg/injection, schedule: Q04DX003 (sc), vehicle: distilled water + Tween-80",53 % of control
COc1cc(OC)c(OC)cc1/C=C\c1ccnc2ccccc12,T/C,"dose: 300.0 mg/kg/injection, schedule: Q04DX003 (sc), vehicle: Klucel (hydroxypropylcellulose) (HPC)",62 % of control
same,T/C,"dose: 600.0 mg/kg/injection, schedule: Q04DX003 (sc), vehicle: Klucel (hydroxypropylcellulose) (HPC)",82 % of control
same,T/C,"dose: 1200.0 mg/kg/injection, schedule: Q04DX003 (sc), vehicle: Klucel (hydroxypropylcellulose) (HPC)",90 % of control
same,T/C,"dose: 2400.0 mg/kg/injection, schedule: Q04DX003 (sc), vehicle: Klucel (hydroxypropylcellulose) (HPC)",81 % of control
OCC1OC(n2cnc3cc(Cl)c(Cl)cc32)C(O)C1O (configuration not stated),T/C,[4],112 % of control
same,T/C,"dose: 600.0 mg/kg/injection, schedule: Q04DX003 (sc), vehicle: saline with Tween-80",86 % of control
same,T/C,[5],94 % of control
same,T/C,"dose: 2400.0 mg/kg/injection, schedule: Q04DX003 (sc), vehicle: saline with Tween-80",72 % of control
CCOC(=O)[C@]1(Br)CC[C@@]1(Br)C(=O)OCC,T/C,[6],107 % of control
same,T/C,[5],123 % of control
COc1c(O)c2c(c3cc(C(=O)N4CCc5c4c(O)c(OC)c4[nH]c(C(=O)N6CC7CC78C6=CC(=O)c6[nH]cc(C)c68)cc54)[nH]c13)CCN2C(N)=O (configuration not stated),T/C,"dose: 6.25 micrograms/kg/injection, schedule: Q01DX010 (sc), vehicle: DMSO",121 % of control
same,T/C,"dose: 12.5 micrograms/kg/injection, schedule: Q01DX010 (sc), vehicle: DMSO",107 % of control
same,T/C,"dose: 25.0 micrograms/kg/injection, schedule: Q01DX010 (sc), vehicle: DMSO",68 % of control
same,T/C,"dose: 50.0 micrograms/kg/injection, schedule: Q01DX010 (sc), vehicle: DMSO",66 % of control
CN=S(=O)(OCCCCCOS(=O)(=NC)c1ccccc1)c1ccccc1 (configuration not stated),T/C,"dose: 200.0 mg/kg/injection, schedule: Q04DX003 (sc), vehicle: saline with Tween-80",36 % of control
same,T/C,"dose: 400.0 mg/kg/injection, schedule: Q04DX003 (sc), vehicle: saline with Tween-80",77 % of control
same,T/C,[6],57 % of control
C1OC1CO[C@@H]1CO[C@H]2[C@@H]1OC[C@H]2OCC1CO1 (some centres not stated),T/C,"dose: 50.0 mg/kg/injection, schedule: Q01DX010 (sc), vehicle: saline with Tween-80",95 % of control
same,T/C,"dose: 100.0 mg/kg/injection, schedule: Q01DX010 (sc), vehicle: saline with Tween-80",80 % of control
same,T/C,"dose: 200.0 mg/kg/injection, schedule: Q01DX010 (sc), vehicle: saline with Tween-80",65 % of control
NC1(C(=O)O)CCCC1,T/C,"dose: 12.0 mg/kg/injection, schedule: Q01DX010 (sc), vehicle: saline",94 % of control
same,T/C,"dose: 24.0 mg/kg/injection, schedule: Q01DX010 (sc), vehicle: saline",66 % of control
same,T/C,"dose: 48.0 mg/kg/injection, schedule: Q01DX010 (sc), vehicle: saline",57 % of control
same,T/C,"dose: 50.0 mg/kg/injection, schedule: Q01DX010 (sc), vehicle: saline",32 % of control
same,T/C,"dose: 96.0 mg/kg/injection, schedule: Q01DX010 (sc), vehicle: saline",29 % of control
CCCCCCCCCCCCSC1=C(Cl)C(=O)C(OC)=C(OC)C1=O,T/C,[2],71 % of control
same,T/C,[3],81 % of control
c1cc[c]([Sn][c]2ccccc2)cc1,T/C,"dose: 10.0 mg/kg/injection, schedule: Q01DX010 (sc), vehicle: saline",78 % of control
same,T/C,"dose: 20.0 mg/kg/injection, schedule: Q01DX010 (sc), vehicle: saline",54 % of control
same,T/C,"dose: 40.0 mg/kg/injection, schedule: Q01DX010 (sc), vehicle: saline",81 % of control
CNC(=O)OCc1c(COC(=O)NC)c(C)n(-c2ccc(OC)cc2)c1C,T/C,"dose: 25.0 mg/kg/injection, schedule: Q01DX010 (sc), vehicle: Klucel (hydroxypropylcellulose) (HPC)",51 % of control
same,T/C,"dose: 50.0 mg/kg/injection, schedule: Q01DX010 (sc), vehicle: Klucel (hydroxypropylcellulose) (HPC)",59 % of control and 63 % of control
same,T/C,"dose: 50.0 mg/kg/injection, schedule: Q04DX003 (sc), vehicle: Klucel (hydroxypropylcellulose) (HPC)",38 % of control
same,T/C,[1],87 % of control
